Patent US20220265597A1, “ANTIVIRAL EFFECTS OF NARASIN IN SWINE FEED” (Elanco US Inc., priority 2014, published 2022)
Marks after values point to notes of the source that are not given here.

Test system: PEDV
Experiment: Viral shedding of PEDV in fecal swabs by real-time RT-PCR
Format: in vivo, pig
Settings: for Viral shedding: only pigs positive for shedding
Procedure: The seventy-five piglets were randomly assigned to one of three treatment groups: control (no ionophore), narasin (30 mg/kg) and narasin (60 mg/kg). They acclimatized to their environment and were fed daily for seven days prior to exposure with PEDV on Day 0. Treatment continued for 14 days following challenge. Pigs from the three treatment groups were administered orally with 4×10^4 TCID50/mL of the PEDV isolate PEDV/USA/NC/2013/49469 (College of Veterinary Medicine, Iowa State University). The piglets were monitored daily for changes in clinical parameters, clinical score for diarrhea, depression and gauntness, rate of food consumption, and rate of body weight change and viral swabs were taken daily to determine viral shedding.
Viral shedding values was evaluated by RMANOVA and the PROC MIXED procedure of SAS (SAS, Cary, N.C.). Other variables for analysis included growth performance data (average daily gain, or ADG; average daily feed intake, or ADFI; and feed efficiency (unit of weight gain per unit of feed consumed), or G:F), incidence and severity of diarrhea, depression, and gauntness scores, and intestinal histology score and immunohistochemistry. The analysis of the growth performance outcomes were conducted using a generalized linear mixed model and the PROC MIXED procedure of SAS.
The effects of narasin levels (0, 30, 60 mg/kg) on within-day viral shedding of nursery pigs (Table 4) and percentage of nursery pigs shedding PEDV (Table 5) are compared. Fecal swabs were collected from all pigs on test daily from Day 0 to 14 of study. Each sample was labeled with pig identification, pen number, and sample day. All samples were frozen at the time of collection and stored until required for analysis. Only fecal swab samples collected from days 0, 1, 2, 3, 4, 5, 6, 7, 8, 9, and 14 were sent for analysis. Fecal swab samples were sent to the Iowa State Veterinary Diagnostic Laboratory (ISVDL) and were analyzed using real-time RT-PCR to determine viral shedding of PEDV.

## CC[C@@H](C(=O)O)[C@@H]1O[C@@H]([C@@H](C)[C@H](O)[C@H](C)C(=O)[C@H](CC)[C@H]2O[C@]3(C=C[C@@H](O)[C@]4(CC[C@@](C)([C@H]5CC[C@](O)(CC)[C@H](C)O5)O4)O3)[C@H](C)C[C@@H]2C)[C@@H](C)C[C@@H]1C [narasin]
0, 30, 60 mg/kg feed
  duration of shedding: generally decreased as narasin level increased
0, 30, 60 mg/kg feed, P>0.10
  effect of narasin level on the percentage of pigs shedding PEDV: no effect
30 mg/kg feed
  viral shedding compared to the control: lower (P<0.10) viral shedding on Day 2 and Day 3
30 mg/kg feed, Day 0
  Viral shedding: 0 cells/mL
30 mg/kg feed, Day 1
  Viral shedding: 1 cells/mL
30 mg/kg feed, Day 2
  Viral shedding: 1,005* cells/mL
30 mg/kg feed, Day 3
  Viral shedding: 152,889* cells/mL
30 mg/kg feed, Day 4
  Viral shedding: 7,543,717 cells/mL
30 mg/kg feed, Day 5
  Viral shedding: 108,303,640 cells/mL
30 mg/kg feed, Day 6
  Viral shedding: 879,972,048 cells/mL
30 mg/kg feed, Day 7
  Viral shedding: 1,422,120,182 cells/mL
30 mg/kg feed, Day 8
  Viral shedding: 268,967,479 cells/mL
30 mg/kg feed, Day 9
  Viral shedding: 63,817,042 cells/mL
30 mg/kg feed, Day 14
  Viral shedding: 2,256 cells/mL
60 mg/kg feed
  viral shedding compared to the control: lower (P<0.10) viral shedding on Day 2, 3, 4, 5, and 6
60 mg/kg feed, Day 0
  Viral shedding: 0 cells/mL
60 mg/kg feed, Day 1
  Viral shedding: 0 cells/mL
60 mg/kg feed, Day 2
  Viral shedding: 1* cells/mL
60 mg/kg feed, Day 3
  Viral shedding: 4,085* cells/mL
60 mg/kg feed, Day 4
  Viral shedding: 18,980* cells/mL
60 mg/kg feed, Day 5
  Viral shedding: 593,842* cells/mL
60 mg/kg feed, Day 6
  Viral shedding: 5,551,647* cells/mL
60 mg/kg feed, Day 7
  Viral shedding: 171,586,154 cells/mL
60 mg/kg feed, Day 8
  Viral shedding: 58,813,444 cells/mL
60 mg/kg feed, Day 9
  Viral shedding: 16,189,481 cells/mL
60 mg/kg feed, Day 14
  Viral shedding: 9,262 cells/mL
